Experimental findings from patent US20080051387A1, “TETRAHYDROPYRIDO[3,4-D]PYRIMIDINES AND RELATED ANALOGUES” (priority 2006, published 2008) are described below.

Molecules are shown by their SMILES. Like-named read-outs stand apart in the source and are kept apart here.

The assay addresses T1, chimeric human H3 receptor (Homo sapiens, UniProt Q9Y5N1).
T1 construct: rat Galpha-i2 (Gnai2, rat); made in house; host or cells: Sf9 insect cells (baculovirus); P2 membranes
Briefly: Chimeric human H3 receptor screening GTP binding assay (inhibition of histamine-stimulated GTP-gamma35S binding, Example 8). Format: biochemical. In outline:
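Compound tested at 4 μM against 1 μM histamine stimulation; 125 pM GTP-gamma35S binding measured by filtration and scintillation after 60 min at room temperature. Membranes from Sf9 cells expressing chimeric human H3 plus G-protein subunits, in Tris pH 7.4/NaCl/MgCl2/GDP buffer; values are % inhibition after nonspecific subtraction.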
Background: GTPγS resists hydrolysis and so accumulates on activated G proteins.

The mark [1] stands for this setting: 1 h, assay of Example 8, symbol "!" in column headed Ki, read-out: percent inhibition of agonist-induced GTP-gammaS binding to H3.
[2] abbreviates: symbol ! in Ki, test compound 4 μM, 1 μM histamine, read-out: percent inhibition of agonist-induced GTP-gammaS binding to H3.
Setting [3] is: 1 h, assay described in Example 8, symbol "!" in column headed Ki, read-out: Ki ("!": percent inhibition of agonist-induced GTP-gammaS binding to H3).

T1 sequence (Q9Y5N1 with tags, fused parts or gaps): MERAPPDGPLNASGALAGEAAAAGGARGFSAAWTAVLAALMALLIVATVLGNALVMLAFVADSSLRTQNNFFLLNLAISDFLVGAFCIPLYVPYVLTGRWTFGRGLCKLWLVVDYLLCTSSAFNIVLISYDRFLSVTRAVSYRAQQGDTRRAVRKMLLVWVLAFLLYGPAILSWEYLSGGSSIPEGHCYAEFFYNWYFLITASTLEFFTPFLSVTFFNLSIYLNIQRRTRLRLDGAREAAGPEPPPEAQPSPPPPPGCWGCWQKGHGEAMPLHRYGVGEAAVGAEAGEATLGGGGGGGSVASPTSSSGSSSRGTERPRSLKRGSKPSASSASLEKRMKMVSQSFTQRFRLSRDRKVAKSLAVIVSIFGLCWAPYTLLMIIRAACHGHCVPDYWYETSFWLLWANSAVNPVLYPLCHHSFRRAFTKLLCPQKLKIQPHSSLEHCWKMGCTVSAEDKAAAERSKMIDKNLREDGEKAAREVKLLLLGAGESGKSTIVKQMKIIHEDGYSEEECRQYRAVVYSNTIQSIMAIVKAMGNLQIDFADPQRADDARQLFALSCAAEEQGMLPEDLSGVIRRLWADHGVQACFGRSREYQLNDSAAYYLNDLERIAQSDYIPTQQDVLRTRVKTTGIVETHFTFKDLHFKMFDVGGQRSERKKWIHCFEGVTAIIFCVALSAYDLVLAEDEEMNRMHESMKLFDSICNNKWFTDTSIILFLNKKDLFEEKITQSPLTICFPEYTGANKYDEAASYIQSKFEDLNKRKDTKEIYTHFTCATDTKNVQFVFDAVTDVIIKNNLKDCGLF

Consider `O=C(Cc1ccccc1Br)N1CCc2cnc(N3CCN(C4CCC4)CC3)nc2CC1` [Compound 297, 7-[(2-bromophenyl)acetyl]-2-(4-cyclobutylpiperazin-1-yl)-6,7,8,9-tetrahydro-5H-pyrimido[4,5-d]azepine], for which, under setting [1], the inhibition (in general, the change of the read-out against control, counted positive when it falls) at 4 µM is at least 90%.

In the case of `c1nc2c(c(N3CCN(C4CCC4)CC3)n1)CCN(Cc1ccc(N3CCCC3)nc1)CC2` [Compound 178, 4-(4-cyclobutylpiperazin-1-yl)-7-[(6-pyrrolidin-1-ylpyridin-3-yl)methyl]-6,7,8,9-tetrahydro-5H-pyrimido[4,5-d]azepine], under setting [2], the inhibition at 4 µM was at least 90%. In the case of `COc1ccc(/C=C/C(=O)N2CCc3cnc(N4CCN(C5CCC5)CC4)nc3CC2)cc1` [Compound 558, 2-(4-cyclobutylpiperazin-1-yl)-7-[(2E)-3-(4-methoxyphenyl)prop-2-enoyl]-6,7,8,9-tetrahydro-5H-pyrimido[4,5-d]azepine], the inhibition at 4 µM under setting [3] is at least 90%. Consider `CC(C1CC1)N1CCc2c(ncnc2N2CCN(C3CCC3)CC2)C1` (centres unmarked) [Compound 124, 4-(4-cyclobutylpiperazin-1-yl)-7-(1-cyclopropylethyl)-5,6,7,8-tetrahydropyrido[3,4-d]pyrimidine], for which the inhibition at 4 µM under setting [2] is at least 90%. With `c1cc(N2CCCC2)ccc1CN1CCc2cnc(N3CCN(C4CCC4)CC3)nc2CC1` [Compound 267, 2-(4-cyclobutylpiperazin-1-yl)-7-(4-pyrrolidin-1-ylbenzyl)-6,7,8,9-tetrahydro-5H-pyrimido[4,5-d]azepine], the inhibition at 4 µM under setting [1] is at least 90%. Regarding `O=C(c1ccc(F)c(Br)c1)N1CCc2cnc(N3CCN(C4CCC4)CC3)nc2CC1` [Compound 401, 7-(3-bromo-4-fluorobenzoyl)-2-(4-cyclobutylpiperazin-1-yl)-6,7,8,9-tetrahydro-5H-pyrimido[4,5-d]azepine], under setting [3], the inhibition at 4 µM was at least 90%.

With `Cc1cc(Cl)ccc1OCC(=O)N1CCc2cnc(N3CCN(C4CCC4)CC3)nc2CC1` [Compound 328, 7-[(4-chloro-2-methylphenoxy)acetyl]-2-(4-cyclobutylpiperazin-1-yl)-6,7,8,9-tetrahydro-5H-pyrimido[4,5-d]azepine], the inhibition at 4 µM under setting [1] was at least 90%. For `Cn1ccnc1CN1CCc2c(ncnc2N2CCN(C3CCC3)CC2)C1` [Compound 71, 4-(4-cyclobutylpiperazin-1-yl)-7-[(1-methyl-1H-imidazol-2-yl)methyl]-5,6,7,8-tetrahydropyrido[3,4-d]pyrimidine], under setting [2], the inhibition at 4 µM was at least 90%.

Consider `CSc1ncccc1C(=O)N1CCc2cnc(N3CCN(C4CCC4)CC3)nc2CC1` [Compound 501, 2-(4-cyclobutylpiperazin-1-yl)-7-{[2-(methylthio)pyridin-3-yl]carbonyl}-6,7,8,9-tetrahydro-5H-pyrimido[4,5-d]azepine], for which the inhibition at 4 µM under setting [3] was at least 90%. For the molecule `CC(C)CN1CCc2nc(N3CCN(C4CCC4)CC3)ncc2C1` [Compound 631, 2-(4-cyclobutylpiperazin-1-yl)-6-isobutyl-5,6,7,8-tetrahydropyrido[4,3-d]pyrimidine], under setting [2], the inhibition at 4 µM was at least 90%.

In the case of `O=C(c1cccc(F)c1)N1CCc2c(ncnc2N2CCN(C3CCC3)CC2)C1` [Compound 29, 4-(4-cyclobutylpiperazin-1-yl)-7-(3-fluorobenzoyl)-5,6,7,8-tetrahydropyrido[3,4-d]pyrimidine], the inhibition at 4 µM under setting [2] was at least 90%. Same read-out and setting: in the case of `CNC(=O)c1ccc(CN2CCc3c(ncnc3N3CCN(C4CCC4)CC3)C2)cc1` [Compound 140, 4-{[4-(4-cyclobutylpiperazin-1-yl)-5,8-dihydropyrido[3,4-d]pyrimidin-7(6H)-yl]methyl}-N-methylbenzamide] it was at least 90%. `CSc1ccc(C(=O)N2CCc3cnc(N4CCN(C5CCC5)CC4)nc3CC2)cc1` [Compound 369, 2-(4-cyclobutylpiperazin-1-yl)-7-[4-(methylthio)benzoyl]-6,7,8,9-tetrahydro-5H-pyrimido[4,5-d]azepine]: the inhibition at 4 µM under setting [1] was at least 90%.

Regarding `COCCOCC(=O)N1CCc2c(ncnc2N2CCN(C3CCC3)CC2)C1` [Compound 65, 4-(4-cyclobutylpiperazin-1-yl)-7-[(2-methoxyethoxy)acetyl]-5,6,7,8-tetrahydropyrido[3,4-d]pyrimidine], the inhibition at 4 µM under setting [2] was at least 90%. In the case of `c1ccc2nc(CN3CCc4c(ncnc4N4CCN(C5CCC5)CC4)C3)ccc2c1` [Compound 93, 4-(4-cyclobutylpiperazin-1-yl)-7-(quinolin-2-ylmethyl)-5,6,7,8-tetrahydropyrido[3,4-d]pyrimidine], the inhibition at 4 µM under setting [2] was at least 90%. Regarding `CCOc1ccc(CC(=O)N2CCc3cnc(N4CCN(C5CCC5)CC4)nc3CC2)cc1OC` [Compound 275, 2-(4-cyclobutylpiperazin-1-yl)-7-[(4-ethoxy-3-methoxyphenyl)acetyl]-6,7,8,9-tetrahydro-5H-pyrimido[4,5-d]azepine], the inhibition at 4 µM under setting [1] is at least 90%. On to `CCCCCC(C)N1CCc2c(ncnc2N2CCN(C3CCC3)CC2)C1` (centres unmarked) [Compound 120, 4-(4-cyclobutylpiperazin-1-yl)-7-(1-methylhexyl)-5,6,7,8-tetrahydropyrido[3,4-d]pyrimidine], for which, under setting [2], the inhibition at 4 µM is at least 90%. On the same count and under the same terms, the result for `O=C(C1CCCCCC1)N1CCc2c(ncnc2N2CCN(C3CCC3)CC2)C1` [Compound 56, 4-(4-cyclobutylpiperazin-1-yl)-7-(cycloheptylcarbonyl)-5,6,7,8-tetrahydropyrido[3,4-d]pyrimidine] reads at least 90%. In the case of `Cc1ccc(N)c(C(=O)N2CCc3cnc(N4CCN(C5CCC5)CC4)nc3CC2)c1` [Compound 539, 2-{[2-(4-cyclobutylpiperazin-1-yl)-5,6,8,9-tetrahydro-7H-pyrimido[4,5-d]azepin-7-yl]carbonyl}-4-methylaniline], the inhibition at 4 µM under setting [3] was at least 90%. Consider `CCN(CC)C1CCN(c2ncnc3c2CCN(Cc2ccccc2)C3)C1` (centres unmarked) [Compound 15, 1-(7-benzyl-5,6,7,8-tetrahydropyrido[3,4-d]pyrimidin-4-yl)-N,N-diethylpyrrolidin-3-amine], for which, under setting [2], the inhibition at 4 µM is at least 90%.

On to `CC(C)c1ccc(C(=O)N2CCc3cnc(N4CCN(C5CCC5)CC4)nc3CC2)cc1` [Compound 205, 2-(4-cyclobutylpiperazin-1-yl)-7-(4-isopropylbenzoyl)-6,7,8,9-tetrahydro-5H-pyrimido[4,5-d]azepine], for which, under setting [1], the inhibition at 4 µM is at least 90%. For `CNc1ccc(C(=O)N2CCc3cnc(N4CCN(C5CCC5)CC4)nc3CC2)cc1` [Compound 535, 4-{[2-(4-cyclobutylpiperazin-1-yl)-5,6,8,9-tetrahydro-7H-pyrimido[4,5-d]azepin-7-yl]carbonyl}-N-methylaniline], under setting [3], the inhibition at 4 µM was at least 90%. The same measure, in the same setting: the result for `O=C(c1cnccc1C(F)(F)F)N1CCc2cnc(N3CCN(C4CCC4)CC3)nc2CC1` [Compound 476, 2-(4-cyclobutylpiperazin-1-yl)-7-{[4-(trifluoromethyl)pyridin-3-yl]carbonyl}-6,7,8,9-tetrahydro-5H-pyrimido[4,5-d]azepine] reads at least 90%. `COc1ccccc1C(C)N1CCc2c(ncnc2N2CCN(C3CCC3)CC2)C1` (centres unmarked) [Compound 113, 4-(4-cyclobutylpiperazin-1-yl)-7-[1-(2-methoxyphenyl)ethyl]-5,6,7,8-tetrahydropyrido[3,4-d]pyrimidine]: the inhibition at 4 µM under setting [2] was at least 90%.

In the case of `O=C(/C=C/c1c(F)cccc1Cl)N1CCc2cnc(N3CCN(C4CCC4)CC3)nc2CC1` [Compound 585, 7-[(2E)-3-(2-chloro-6-fluorophenyl)prop-2-enoyl]-2-(4-cyclobutylpiperazin-1-yl)-6,7,8,9-tetrahydro-5H-pyrimido[4,5-d]azepine], the inhibition at 4 µM under setting [1] is at least 90%.

Take `c1ccc(CN2CCc3c(ncnc3N3CCN(C4CCCC4)CC3)C2)cc1` [Compound 16, 7-benzyl-4-(4-cyclopentylpiperazin-1-yl)-5,6,7,8-tetrahydropyrido[3,4-d]pyrimidine]: under setting [2], the inhibition at 4 µM is at least 90%. `CCCOc1ccccc1C(=O)N1CCc2cnc(N3CCN(C4CCC4)CC3)nc2CC1` [Compound 416, 2-(4-cyclobutylpiperazin-1-yl)-7-(2-propoxybenzoyl)-6,7,8,9-tetrahydro-5H-pyrimido[4,5-d]azepine]: the inhibition at 4 µM under setting [3] is at least 90%. The same measure, in the same setting: in the case of `O=C(c1cnn(-c2ccc(Cl)cc2)c1C(F)(F)F)N1CCc2cnc(N3CCN(C4CCC4)CC3)nc2CC1` [Compound 507, 7-{[1-(4-chlorophenyl)-5-(trifluoromethyl)-1H-pyrazol-4-yl]carbonyl}-2-(4-cyclobutylpiperazin-1-yl)-6,7,8,9-tetrahydro-5H-pyrimido[4,5-d]azepine] it was at least 90%; in that of `O=C(/C=C/c1ccc(OCc2ccc(F)cc2)cc1)N1CCc2cnc(N3CCN(C4CCC4)CC3)nc2CC1` [Compound 562, 2-(4-cyclobutylpiperazin-1-yl)-7-[(2E)-3-{4-[(4-fluorobenzyl)oxy]phenyl}prop-2-enoyl]-6,7,8,9-tetrahydro-5H-pyrimido[4,5-d]azepine], at least 90%. Take `O=C(C1CCC1)N1CCc2cnc(N3CCN(C4CCC4)CC3)nc2CC1` [Compound 216, 7-(cyclobutylcarbonyl)-2-(4-cyclobutylpiperazin-1-yl)-6,7,8,9-tetrahydro-5H-pyrimido[4,5-d]azepine]: under setting [1], the inhibition at 4 µM is at least 90%. As to `O=C(c1cccnc1Sc1ccc(Cl)cc1)N1CCc2cnc(N3CCN(C4CCC4)CC3)nc2CC1` [Compound 493, 7-({2-[(4-chlorophenyl)thio]pyridin-3-yl}carbonyl)-2-(4-cyclobutylpiperazin-1-yl)-6,7,8,9-tetrahydro-5H-pyrimido[4,5-d]azepine], the inhibition at 4 µM under setting [3] is at least 90%. With `CCN1CCc2cnc(N3CCN(C4CCC4)CC3)nc2CC1` [Compound 245, 2-(4-cyclobutylpiperazin-1-yl)-7-ethyl-6,7,8,9-tetrahydro-5H-pyrimido[4,5-d]azepine], the inhibition at 4 µM under setting [1] is at least 90%.
